Source: patent US10864215B2, “Use of phosphoinositide 3-kinase inhibitors for treatment of vascular malformations” (MEMORIAL SLOAN-KETTERING CANCER CENTER, priority 2015, dated 2020)
“Also recorded” adds a separate entry of the source.

Columns and labels:
[1] = system: PIK3CA^CAG-CreER VM-derived allografts; experiment: VM allografts treated topically with BYL719 1% (w/w) cream; assay type: in vivo, mice; conditions: topical, daily, BYL719 1% (w/w) in two cream formulations (free and soluble BYL719), 3 weeks
Procedure: For the formulation of topical preparations, the cream base Versatile™ (Fargon) was used, which allows the incorporation of active principles and has the ability to vanish rapidly into the skin of the mice. Two different formulations using BYL719 at 1% (w/w) were prepared as follows. Free BYL719: This formulation was generated by mixing BYL719 in powder with the base cream and homogenized using an Ultra-Turrax to achieve a similar distribution of the active principle. Soluble BYL719: For this formula, BYL719 powder was dissolved in a small volume of DMSO (400 mg×mL^−1). This concentrated solution was then incorporated into the base cream with gentle agitation, achieving a homogeneous distribution of the active principle. The topical formulations were applied into the mice lesions at daily-basis and VM growth was assessed as described above.

PIK3CA^Tie2-Cre embryos = experiment: Treatment of pregnant PIK3CA^Tie2-Cre mice, embryo vascular phenotype; assay type: in vivo
Procedure: (§1) For the treatment of pregnant PIK3CA^Tie2-Cre mice, BYL719 was administered orally three times at E7.5, E8.5, and E9.5. Two hours after the last treatment, embryos were harvested and characterized. IHC and IF stainings were performed using Discovery XT processor (Ventana Medical Systems) at the Molecular Cytology Core (MSKCC). Tissue sections were deparaffinized with EZPrep buffer (Ventana Medical Systems), antigen retrieval was performed with CC1 buffer (Ventana Medical Systems). Sections were blocked for 30 minutes with Background Buster solution (Innovex) or 10% normal rabbit serum (for LYVE-1 antibody) followed by avidin/biotin blocking for 8 minutes. Sections were stained with the following antibodies: CD31: (Dianova, DIA-310, 1 μg×mL^−1) for 5 hours, followed by 60 minutes incubation with biotinylated goat anti-rat IgG (Vector labs, PK-4004) at 1:200 dilution. The detection was performed with Streptavidin-HRP D (Ventana Medical Systems), followed by incubation with Alexa Fluor 488 (Invitrogen, T20922); BrdU: sections were pretreated with Protease K (5 μg×mL^−1) and incubated with anti-BrdU (Roche, 1170376, 1 μg×mL^−1) for 5 hours, followed by 60 minutes incubation with biotinylated horse anti-mouse IgG (Vector Labs, MKB-22258). The detection was performed with Streptavidin-HRP D (Ventana Medical Systems), followed by incubation with Alexa Fluor 594 (Invitrogen, T20935). When two markers were used, stainings were performed consecutively according to the procedure described above. After staining, slides were counterstained with DAPI (Sigma, D9542, 5 μg×mL^−1) for 10 min and coverslipped with Mowiol. Antibodies were used as follows: GLUT-1: Sections were incubated with anti-GLUT-1 antibody (Chemicon, AB1340, 0.5 μg×mL^−1) for 4 hours, followed by 60 minutes incubation with biotinylated goat anti-rabbit IgG (Vector labs, PK6101) at 1:200 dilution; LYVE-1: Sections were incubated with anti-LYVE-1 antibody (R&D Systems, AF2125, 1 μg×mL^−1) for 3 hours, followed by 60 minutes incubation with biotinylated rabbit anti-goat IgG (Vector, BA-5000) at 1:200 dilution.; and WT-1: Sections were incubated with anti-WT-1 antibody (Abcam, Ab89901, 1:50 dilution) for 1 hour, followed by 60 minutes incubation with biotinylated rabbit anti-goat IgG (Vector, BA-5000) at 1:200 dilution. For GLUT-1, LYVE-1, and WT-1 IHC, detection was performed with DAB detection kit (Ventana Medical Systems) according to manufacturer instructions, followed by counterstaining with hematoxylin (Ventana Medical Systems) and coverslipped with Permount (Fisher Scientific).

ANG2 = ANG2 mRNA (RT-qPCR) and protein (ELISA) in PIK3CA^H1047R ECs; assay type: cell-based, human; conditions: serum-starved, treated overnight, BYL719 1 μM, MK2206 1 μM, Everolimus 50 nM; for ANG2 protein expression: ELISA; for ANG2 mRNA expression: RT-qPCR
[2] = system: PIK3CA^CAG-CreER VM-derived allografts; experiment: PIK3CA^CAG-CreER VM-derived allografts in nude mice, oral treatment; assay type: in vivo; conditions: for VM volume / apoptosis (cleaved caspase 3 in CD31-positive cells) / proliferation (BrdU incorporation in CD31-positive cells): allografts in nude mice, daily p.o., one week, BYL719 50 mg×kg^−1, everolimus 10 mg×kg^−1, propranolol 40 mg×kg^−1
Procedure: For allograft studies, vascular lesions isolated from PIK3CA^CAG-CreER mice were rinsed with ice cold PBS, minced, resuspended with cold 1:1 DMEM/Matrigel, and injected subcutaneously in six-week-old female athymic Foxn1^nu nude mice. […] The following formula was applied:
[formula] After one week of treatment, VM were measured and harvested for further analysis. VM volume was calculated using the following formula: […]
as §1, with “IHC” for “For the treatment of pregnant PIK3CA^Tie2-Cre mice, BYL719 was administered orally three times at E7.5, E8.5, and E9.5. Two hours after the last treatment, embryos were harvested and characterized. IHC”

[3] = system: phosphorylated AKT (T308 and S473); experiment: Western blot of HUVEC cells expressing TEK L914F; assay type: cell-based, human; conditions: HUVEC stably expressing TEK L914F, treated 4 hours
Procedure: FIGS. 27A-27B. Treatment of VM with PI3K inhibitors. (A) Western blot of HUVEC cells transduced with TEK L914F mutation and probed with the indicated antibodies. Cells were treated for 4 hours with the indicated doses of BYL719. (B) Representative images of the allograft VM treated with the topical formulation of BYL719. Free and soluble refer to the two different preparations of the topical formula. Arrows indicate the area affected by the VM allograft.
Proteins were extracted using RIPA buffer and Western blot was performed usim standard methods. Antibodies for Western blot were: pAKT (S473) (Cell Signaling; 4060), pAKT (T308) (Cell Signaling; 2965), AKT (Cell Signaling; 9272), pS6K (T389) (Cell Signaling; 9205), S6K (Cell Signaling; 2708), pS6 (S240/4) (Cell Signaling; 5364), pS6 (S235/6) (Cell Signaling; 4858), S6 (Cell Signaling; 2217), actin (Cell Signaling; 4970). Tube formation assay was performed using Matrigel-coated 48 multiwells as a substrate. 10^5 EC were seeded in EBM-2 media without FBS and analyzed after 6 hours for tube formation.

[4] = pregnant mice, BYL719 50 mg×kg^−1 p.o., 48, 24 and 2 hours before harvest
[5] = VVM in nude mice, BYL719 50 mg×kg-1 daily p.o.

Cc1nc(NC(=O)N2CCC[C@H]2C(N)=O)sc1-c1ccnc(C(C)(C)C(F)(F)F)c1 [BYL719]
regression of skin lesions (VM volume) [1]: rapid and sustained regression of skin lesions
meningeal, cardinal vein and dorsal aorta blood vessel morphology (histology, CD31 coronal sections) (PIK3CA^Tie2-Cre embryos; pregnant mice treated, E9.5 embryos): reestablished meningeal, cardinal vein, and dorsal aorta blood vessels morphology
Phospho-AKT staining in PIK3CA^Tie2-Cre and PIK3CA^WT embryos (PIK3CA^Tie2-Cre embryos; pregnant mice treated, versus untreated control embryos): strong reduction
cephalic and intersomitic small blood vessel formation (CD31 whole-mount staining) (PIK3CA^Tie2-Cre embryos; [4]): restored cephalic and intersomitic small blood vessel formation
overall body size of PIK3CA^Tie2-Cre E9.5 embryos (PIK3CA^Tie2-Cre embryos; [4]): comparable to PIK3CA^WT littermates
ANG2 protein expression (ANG2): able to rescue
ANG2 mRNA expression (ANG2): able to rescue
phospho-AKT (S473) levels [2, 5]: decrease
phospho-S6RP (S240/4) levels [2, 5]: decrease
VM volume [2]: decrease in VM volume
apoptosis (cleaved caspase 3 in CD31-positive cells) [2]: increased apoptosis
proliferation (BrdU incorporation in CD31-positive cells) [2]: decrease in proliferation; also recorded: reduced proliferation
amount of phosphorylated AKT (T308 and S473) [3]: decreased

Cl.Cl.NC1(c2ccc(-c3nc4ccn5c(=O)[nH]nc5c4cc3-c3ccccc3)cc2)CCC1 [MK2206, 8-[4-(1-aminocyclobutyl)phenyl]-9-phenyl-1,2,4-triazolo[3,4-f][1,6]naphthyridin-3(2H)-one, dihydrochloride]
ANG2 protein expression (ANG2): able to rescue
ANG2 mRNA expression (ANG2): able to rescue

CO[C@H]1C[C@@H]2CC[C@@H](C)[C@@](O)(O2)C(=O)C(=O)N2CCCC[C@H]2C(=O)O[C@H]([C@H](C)C[C@@H]2CC[C@@H](OCCO)[C@H](OC)C2)CC(=O)[C@H](C)/C=C(\C)[C@@H](O)[C@@H](OC)C(=O)[C@H](C)C[C@H](C)/C=C/C=C/C=C/1C [everolimus]
VM volume [2]: partially decreased VM size; also recorded: greatest growth inhibition
apoptosis (cleaved caspase 3 in CD31-positive cells) [2]: did not increase apoptosis
proliferation (BrdU incorporation in CD31-positive cells) [2]: partially decreased
